This is an account of results in PubChem BioAssay (NCI).

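Following 48 hours of exposure in 96-well plates, responses at five concentrations were used to interpolate endpoints linearly. TGI denotes the concentration required for complete inhibition of growth.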 A value given as a limit tells only on which side of the number the result lay.

One test deals with MDA-MB-231 breast. The experiment in a line: NCI tumour cell line growth inhibition, 48 h.
`CC(C)(CO)N1C(=O)c2ccccc2C1(O)c1ccc(Cl)cc1` (stereo not drawn): the TGI is more than 100 µM.
Consider `COC(=O)C1CC(C=[N+](C)C)=C(SC)N1` (stereo not drawn), for which the TGI is more than 100 µM.
`CN1CN(c2ccccc2)C2(CCN(CCCC3(c4cccs4)OCCO3)CC2)C1=O` yielded a TGI of more than 100 µM.
Same read-out and setting: in the case of `Cc1cc(O)cc(O)c1N=Nc1ccc([N+](=O)[O-])cc1` it was 47.4 µM; in that of `O=c1c2cc(I)ccc2[nH]c(=S)n1Cc1ccccc1`, 66.3 µM; in that of `Cc1nc2ccc([N+](=O)[O-])cc2c(=O)n1C(=S)Nc1cccc(Cl)c1`, 37.1 µM.
Take `Cc1cccc(C[C@@]2(SCc3ccccc3)C(C)(C)[C@@H]3CC[C@@]2(C)C3)n1`: the TGI came to 28.5 µM.
Same read-out and setting: in the case of `N#Cc1c(OCCF)c2ccccc2n2c1nc1ccccc12` it was more than 100 µM; in that of `O=C1/C(=C/c2ccc([N+](=O)[O-])cc2)CNC/C1=C\c1ccc([N+](=O)[O-])cc1`, 20.2 µM.
For `C/C(=N/NC(=S)Nc1cccc(C)c1)c1ccccn1`, the TGI was found to be 2.45 µM.
On the same count and under the same terms, the result for `O=C(O)c1ccc(NS(=O)(=O)Cc2ccccc2)cc1` reads more than 100 µM.
Compound `O=C1/C(=C/c2ccc(Br)s2)NC(=S)N1CN1CCOCC1` gave a TGI of more than 100 µM.
Still for that read-out and setting: the result for `CC(=O)/C(=C/n1c(=S)sc2ccccc21)C(=O)Nc1ccccc1C` reads more than 100 µM.
On the same count and under the same terms, in the case of `Cc1ccc(C2=Nc3c(c(C)nn3-c3ccccc3)N=C(C(=O)O)C2)cc1` it was more than 10 µM.
With `Cc1ccc(C(=O)Nc2ccc(CP(=O)(O)O)cc2)cc1NC(=O)c1cccc(NC(=O)Nc2cccc(C(=O)Nc3cc(C(=O)Nc4ccc(CP(=O)(O)O)cc4)ccc3C)c2)c1`, the TGI is more than 100 µM.
Compound `CCOC(=O)c1cnc2[nH]ccn2c1=O` displayed a TGI of more than 10 µM.
The same measure, in the same setting: the result for `O=C1C(Br)=Cc2c(Cl)sc(Cl)c21` reads 8.91 µM.
Consider `O=[N+]([O-])C(=C(Sc1ccccc1)Sc1ccccc1)C(Cl)=C(Cl)Cl`, for which the TGI is 0.408 µM.
Consider `NCCCC(N)C(=O)O` (stereo not drawn), for which the TGI was more than 100 µM.
`CCOC(=O)C1C(=O)CC(O)(c2ccccc2)C(C(=O)OCC)C1c1ccc(OC)cc1` (stereo not drawn) registered a TGI of more than 100 µM.
In turn, `COC(=O)CCCC(=O)C(=Nc1c(Cl)cccc1Cl)NNc1ccc(Cl)cc1` gave a TGI of more than 100 µM.

Another test relates to UACC-257 melanoma. The test can be described thus: NCI tumour cell line growth inhibition, 48 h.
Regarding `CC(C)(CO)N1C(=O)c2ccccc2C1(O)c1ccc(Cl)cc1` (stereo not drawn), the TGI was more than 100 µM.
The same measure, in the same setting: in the case of `COC(=O)C1CC(C=[N+](C)C)=C(SC)N1` (stereo not drawn) it was more than 100 µM; in that of `CN1CN(c2ccccc2)C2(CCN(CCCC3(c4cccs4)OCCO3)CC2)C1=O`, more than 100 µM; in that of `Cc1cc(O)cc(O)c1N=Nc1ccc([N+](=O)[O-])cc1`, 79.5 µM.
Same read-out and setting: in the case of `O=c1c2cc(I)ccc2[nH]c(=S)n1Cc1ccccc1` it was more than 100 µM; in that of `Cc1nc2ccc([N+](=O)[O-])cc2c(=O)n1C(=S)Nc1cccc(Cl)c1`, 41.2 µM.
On the same count and under the same terms, in the case of `Cc1cccc(C[C@@]2(SCc3ccccc3)C(C)(C)[C@@H]3CC[C@@]2(C)C3)n1` it was 29.9 µM; in that of `N#Cc1c(OCCF)c2ccccc2n2c1nc1ccccc12`, more than 100 µM; in that of `O=C1/C(=C/c2ccc([N+](=O)[O-])cc2)CNC/C1=C\c1ccc([N+](=O)[O-])cc1`, more than 100 µM.
The compound `C/C(=N/NC(=S)Nc1cccc(C)c1)c1ccccn1` displayed a TGI of 4.44 µM.
The same measure, in the same setting: in the case of `O=C(O)c1ccc(NS(=O)(=O)Cc2ccccc2)cc1` it was more than 100 µM; in that of `O=C1/C(=C/c2ccc(Br)s2)NC(=S)N1CN1CCOCC1`, more than 100 µM.
Turning to `CC(=O)/C(=C/n1c(=S)sc2ccccc21)C(=O)Nc1ccccc1C`, the TGI is more than 100 µM.
On the same count and under the same terms, in the case of `Cc1ccc(C2=Nc3c(c(C)nn3-c3ccccc3)N=C(C(=O)O)C2)cc1` it was more than 10 µM; in that of `Cc1ccc(C(=O)Nc2ccc(CP(=O)(O)O)cc2)cc1NC(=O)c1cccc(NC(=O)Nc2cccc(C(=O)Nc3cc(C(=O)Nc4ccc(CP(=O)(O)O)cc4)ccc3C)c2)c1`, more than 100 µM.
Same read-out and setting: the result for `CCOC(=O)c1cnc2[nH]ccn2c1=O` reads more than 10 µM; that for `O=C1C(Br)=Cc2c(Cl)sc(Cl)c21`, more than 28.5 µM; that for `O=[N+]([O-])C(=C(Sc1ccccc1)Sc1ccccc1)C(Cl)=C(Cl)Cl`, 1.1 µM.
Compound `NCCCC(N)C(=O)O` (stereo not drawn) showed a TGI of more than 100 µM.
Same read-out and setting: the result for `CCOC(=O)C1C(=O)CC(O)(c2ccccc2)C(C(=O)OCC)C1c1ccc(OC)cc1` (stereo not drawn) reads more than 100 µM; that for `COC(=O)CCCC(=O)C(=Nc1c(Cl)cccc1Cl)NNc1ccc(Cl)cc1`, more than 100 µM.

A further test deals with HCT-116 colon. The test can be described thus: NCI tumour cell line growth inhibition, 48 h.
For the compound `CC(C)(CO)N1C(=O)c2ccccc2C1(O)c1ccc(Cl)cc1` (stereo not drawn), the TGI was more than 100 µM.
Still for that read-out and setting: the result for `COC(=O)C1CC(C=[N+](C)C)=C(SC)N1` (stereo not drawn) reads more than 100 µM; that for `CN1CN(c2ccccc2)C2(CCN(CCCC3(c4cccs4)OCCO3)CC2)C1=O`, more than 100 µM.
`Cc1cc(O)cc(O)c1N=Nc1ccc([N+](=O)[O-])cc1` had a TGI of 15.4 µM.
Still for that read-out and setting: the result for `O=c1c2cc(I)ccc2[nH]c(=S)n1Cc1ccccc1` reads more than 100 µM; that for `Cc1nc2ccc([N+](=O)[O-])cc2c(=O)n1C(=S)Nc1cccc(Cl)c1`, 36.9 µM.
On the same count and under the same terms, in the case of `Cc1cccc(C[C@@]2(SCc3ccccc3)C(C)(C)[C@@H]3CC[C@@]2(C)C3)n1` it was 31.9 µM; in that of `N#Cc1c(OCCF)c2ccccc2n2c1nc1ccccc12`, more than 100 µM; in that of `O=C1/C(=C/c2ccc([N+](=O)[O-])cc2)CNC/C1=C\c1ccc([N+](=O)[O-])cc1`, 1.97 µM.
Same read-out and setting: in the case of `C/C(=N/NC(=S)Nc1cccc(C)c1)c1ccccn1` it was 3.11 µM; in that of `O=C(O)c1ccc(NS(=O)(=O)Cc2ccccc2)cc1`, more than 100 µM; in that of `O=C1/C(=C/c2ccc(Br)s2)NC(=S)N1CN1CCOCC1`, more than 100 µM.
`CC(=O)/C(=C/n1c(=S)sc2ccccc21)C(=O)Nc1ccccc1C`: the TGI was more than 100 µM.
Same read-out and setting: the result for `Cc1ccc(C2=Nc3c(c(C)nn3-c3ccccc3)N=C(C(=O)O)C2)cc1` reads more than 10 µM; that for `Cc1ccc(C(=O)Nc2ccc(CP(=O)(O)O)cc2)cc1NC(=O)c1cccc(NC(=O)Nc2cccc(C(=O)Nc3cc(C(=O)Nc4ccc(CP(=O)(O)O)cc4)ccc3C)c2)c1`, more than 100 µM; that for `CCOC(=O)c1cnc2[nH]ccn2c1=O`, more than 10 µM.
On the same count and under the same terms, in the case of `O=C1C(Br)=Cc2c(Cl)sc(Cl)c21` it was 6.25 µM.
As for `O=[N+]([O-])C(=C(Sc1ccccc1)Sc1ccccc1)C(Cl)=C(Cl)Cl`, the TGI was determined as 0.125 µM.
As for `NCCCC(N)C(=O)O` (stereo not drawn), the TGI was more than 100 µM.
For the compound `CCOC(=O)C1C(=O)CC(O)(c2ccccc2)C(C(=O)OCC)C1c1ccc(OC)cc1` (stereo not drawn), the TGI was more than 47 µM.
Same read-out and setting: the result for `COC(=O)CCCC(=O)C(=Nc1c(Cl)cccc1Cl)NNc1ccc(Cl)cc1` reads more than 100 µM.

The next test has as its system RXF 393 renal. The experiment in a line: NCI tumour cell line growth inhibition, 48 h.
For `CC(C)(CO)N1C(=O)c2ccccc2C1(O)c1ccc(Cl)cc1` (stereo not drawn), the TGI was more than 100 µM.
Regarding `COC(=O)C1CC(C=[N+](C)C)=C(SC)N1` (stereo not drawn), the TGI is more than 100 µM.
Regarding `CN1CN(c2ccccc2)C2(CCN(CCCC3(c4cccs4)OCCO3)CC2)C1=O`, the TGI was more than 100 µM.
The compound `Cc1cc(O)cc(O)c1N=Nc1ccc([N+](=O)[O-])cc1` registered a TGI of 40.5 µM.
Consider `O=c1c2cc(I)ccc2[nH]c(=S)n1Cc1ccccc1`, for which the TGI is 78 µM.
